What follows are compounds tested against human Kv1.5 channel (Homo sapiens, UniProt P22460) (assay: Test A: Rb+ efflux assay). Conditions: CHO cells stably transfected with cDNA for human Kv1.5.
Type: cell-based
Experimental: This assay identifies compounds that block the human Kv1.5 channel potassium channel heterologously expressed in Chinese Hamster Ovary (CHO) cells by means of Rb+ ion efflux using Flame Atomic Absorption Spectroscopy. For experimental studies, CHO cells stably transfected with cDNA for human Kv1.5 were grown as confluent layers in Falcon, 384-well tissue culture-treated black-walled clear-bottomed plates and the plates were incubated overnight at 37° C. in a cell culture incubator.
After incubating overnight the cell plates were washed and a buffer containing Rb+ ions were added to the cell plates. The plates were then incubated for another 3-4 hours in a CO2-incubator (37° C.). Following this incubation period plates were washed, compounds were added and subsequently a buffer containing elevated K+ concentrations were added in order to activate the Kv1.5 channel. Following a short incubation time, aliquots of the supernatants were transferred to supernatant plates for subsequent determination of the Rb+ content using Atomic Absorption Spectrometry (ICR8000 instrument, Aurora Biomed Inc.).

Chain of human Kv1.5 channel (P22460 whole entry): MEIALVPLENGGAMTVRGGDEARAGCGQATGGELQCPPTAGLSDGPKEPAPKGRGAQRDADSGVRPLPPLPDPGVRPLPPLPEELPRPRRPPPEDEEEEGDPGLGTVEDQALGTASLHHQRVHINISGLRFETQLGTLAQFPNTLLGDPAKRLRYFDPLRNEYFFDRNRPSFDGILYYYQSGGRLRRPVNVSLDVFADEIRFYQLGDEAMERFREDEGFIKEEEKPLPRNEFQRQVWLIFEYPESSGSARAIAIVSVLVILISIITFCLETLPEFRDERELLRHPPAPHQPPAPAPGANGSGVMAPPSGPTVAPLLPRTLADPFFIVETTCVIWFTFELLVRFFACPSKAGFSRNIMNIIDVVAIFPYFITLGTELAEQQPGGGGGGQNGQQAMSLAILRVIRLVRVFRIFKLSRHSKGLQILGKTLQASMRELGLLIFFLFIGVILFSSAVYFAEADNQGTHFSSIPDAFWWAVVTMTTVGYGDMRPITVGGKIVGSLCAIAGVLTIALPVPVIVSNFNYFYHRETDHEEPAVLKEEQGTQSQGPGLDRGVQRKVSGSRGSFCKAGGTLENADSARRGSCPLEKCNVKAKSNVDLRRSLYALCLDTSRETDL

First: CC(CN1C(=O)c2ccc(Cl)cc2C1C(=O)NCc1cccnc1)c1ccc(Cl)cc1 (centres unmarked) [6-chloro-2-[2-(4-chlorophenyl)propyl]-3-oxo-N-(pyridin-3-ylmethyl)isoindoline-1-carboxamide]
Second: CC(CN1C(=O)c2ccc(Cl)cc2C1C(=O)NCc1ccccc1)c1ccc(Cl)cc1 (centres unmarked) [N-benzyl-6-chloro-2-[2-(4-chlorophenyl)propyl]-3-oxoisoindoline-1-carboxamide]
The IC50 of the first is 4.5-fold higher: 680 nM for the first, 150 nM for the second. The second is the more potent here.

First: CC(C)(C)NC(=O)C1c2c(O)cccc2C(=O)N1Cc1ccccc1-c1ccccc1 (centres unmarked) [2-(biphenyl-2-ylmethyl)-N-(tert-butyl)-7-hydroxy-3-oxoisoindoline-1-carboxamide]
Second: Cc1c(O)ccc2c1C(=O)N(Cc1ccccc1-c1ccccc1)C2C(=O)NC(C)(C)C (single isomer, unassigned) [(R or S) 2-(biphenyl-2-ylmethyl)-N-(tert-butyl)-5-hydroxy-4-methyl-3-oxoisoindoline-1-carboxamide]
The IC50 of the first is 2.7-fold higher: 3000 nM for the first, 1100 nM for the second. The second is the more potent here.

`CC(C)(C)NC(=O)C1c2ccccc2C(=O)N1Cc1ccc(F)cc1-c1ccc(F)cc1` (centres unmarked) [N-(tert-butyl)-2-[(4′,5-difluorobiphenyl-2-yl)methyl]-3-oxoisoindoline-1-carboxamide] and `CC(C)(C)NC(=O)C1c2ccccc2C(=O)N1Cc1ccccc1-c1ccc(F)c(F)c1` (single isomer, unassigned) [(1R or 1S)-N-(tert-butyl)-2-[(3′,4′-difluorobiphenyl-2-yl)methyl]-3-oxoisoindoline-1-carboxamide] are within 1.5-fold of each other in IC50: 9300 nM for the first, 13000 nM for the second.

Compared with `CC(C)(C)NC(=O)C1c2cc(Cl)ccc2C(=O)N1C(c1ccccc1)c1ccccc1` (centres unmarked) [N-(tert-butyl)-6-chloro-2-(diphenylmethyl)-3-oxoisoindoline-1-carboxamide], `O=C(NCCCC(F)F)C1c2ccccc2C(=O)N1C(c1ccccc1)c1ccccc1` (centres unmarked) [N-(4,4-difluorobutyl)-2-(diphenylmethyl)-3-oxoisoindoline-1-carboxamide] is 2.9-fold higher in IC50: 2800 nM for the first, 8000 nM for the second. The first is the more potent here.

First: CCCCNC(=O)C1c2cc(F)ccc2C(=O)N1CC(C)c1ccc(Cl)cc1 (single isomer, unassigned) [(1S or 1R)-N-butyl-2-[(2S or 2R)-2-(4-chlorophenyl)propyl]-6-fluoro-3-oxoisoindoline-1-carboxamide]
Second: CCCNC(=O)C1c2cc(F)ccc2C(=O)N1CC(C)c1ccc(Cl)cc1 (centres unmarked) [2-[2-(4-chlorophenyl)propyl]-6-fluoro-3-oxo-N-propylisoindoline-1-carboxamide]
The IC50 of the first is 6.5-fold higher: 15000 nM for the first, 2300 nM for the second. The second is the more potent here.

Going from `N#Cc1cccc(CNC(=O)C2c3ccccc3C(=O)N2Cc2cccc(Cl)c2)c1` (centres unmarked) [2-(3-chlorobenzyl)-N-(3-cyanobenzyl)-3-oxoisoindoline-1-carboxamide] to `CCNC(=O)C1c2cc(Cl)ccc2C(=O)N1Cc1ccccc1-c1ccccc1` (centres unmarked) [2-(biphenyl-2-ylmethyl)-6-chloro-N-ethyl-3-oxoisoindoline-1-carboxamide], the IC50 falls from 2000 nM to 1000 nM (2-fold). The second is the more potent here.

`COc1ccc2c(c1OC)C(=O)N(CC(C)c1ccc(Cl)cc1)C2C(=O)NCc1ccccc1` (centres unmarked) [N-benzyl-2-[2-(4-chlorophenyl)propyl]-4,5-dimethoxy-3-oxoisoindoline-1-carboxamide] and `COc1cc2c(cc1OC)C(C(=O)NCc1ccccc1)N(CC(C)c1ccc(Cl)cc1)C2=O` (centres unmarked) [N-benzyl-2-[2-(4-chlorophenyl)propyl]-5,6-dimethoxy-3-oxoisoindoline-1-carboxamide] are within 1.5-fold of each other in IC50: 610 nM for the first, 740 nM for the second.

Compared with `O=C(NCc1ccccc1)C1c2cc(F)ccc2C(=O)N1Cc1ccccc1C(F)(F)F` (centres unmarked) [N-benzyl-6-fluoro-3-oxo-2-[2-(trifluoromethyl)benzyl]isoindoline-1-carboxamide], `CC(C)(C)NC(=O)C1c2cc(F)ccc2C(=O)N1Cc1ccccc1-c1ccccc1` (centres unmarked) [2-(biphenyl-2-ylmethyl)-N-(tert-butyl)-6-fluoro-3-oxoisoindoline-1-carboxamide] is 4.8-fold higher in IC50: 1400 nM for the first, 6700 nM for the second.

First: CCC(c1ccccc1)N1C(=O)c2ccccc2C1C(=O)NCc1ccccc1 (centres unmarked) [N-benzyl-3-oxo-2-(1-phenylpropyl)isoindoline-1-carboxamide]
Second: CC(c1ccccc1)N1C(=O)c2ccccc2C1C(=O)NCc1ccccc1 (single isomer, unassigned) [(1R or 1S)-N-benzyl-3-oxo-2-[(1S or 1R)-1-phenylethyl]isoindoline-1-carboxamide]
The IC50 of the first is 3.8-fold lower: 400 nM for the first, 1500 nM for the second.

`C[C@H](c1ccccc1)N1C(=O)c2ccc(Cl)cc2C1C(=O)NCCCC(F)(F)F` (stereo partly drawn) [6-chloro-3-oxo-2-[(1R)-1-phenylethyl]-N-(4,4,4-trifluorobutyl)isoindoline-1-carboxamide] and `CC(CN1C(=O)c2ccccc2C1C(=O)NCCCC(F)(F)F)c1ccc(Cl)cc1` (centres unmarked) [2-[2-(4-chlorophenyl)propyl]-3-oxo-N-(4,4,4-trifluorobutyl)isoindoline-1-carboxamide] are within 1.5-fold of each other in IC50: 2000 nM for the first, 1800 nM for the second.

Compared with `CC(C)(CO)CN1C(=O)c2ccc(Cl)cc2C1C(=O)NCc1cccc(Cl)c1` (centres unmarked) [6-chloro-N-(3-chlorobenzyl)-2-(3-hydroxy-2,2-dimethylpropyl)-3-oxoisoindoline-1-carboxamide], `CC(C)(CO)CN1C(=O)c2ccc(F)cc2C1C(=O)NCc1cccc(OC(F)F)c1` (centres unmarked) [N-[3-(difluoromethoxy)benzyl]-6-fluoro-2-(3-hydroxy-2,2-dimethylpropyl)-3-oxoisoindoline-1-carboxamide] is 1.5-fold lower in IC50: 2100 nM for the first, 1400 nM for the second. The second is the more potent here.

`N#Cc1ccc(CNC(=O)C2c3ccccc3C(=O)N2Cc2ccccc2-c2ccccc2)cc1` (centres unmarked) [2-(biphenyl-2-ylmethyl)-N-(4-cyanobenzyl)-3-oxoisoindoline-1-carboxamide] and `O=C(NCc1ccc(CNC(=O)C2c3ccccc3C(=O)N2Cc2ccccc2-c2ccccc2)cc1)C(F)F` (centres unmarked) [2-(biphenyl-2-ylmethyl)-N-(4-{[(difluoroacetyl)amino]methyl}benzyl)-3-oxoisoindoline-1-carboxamide] are within 1.5-fold of each other in IC50: 2800 nM for the first, 2400 nM for the second.

First: CCCCNC(=O)C1c2c(F)cccc2C(=O)N1CC(C)c1ccc(Cl)cc1 (centres unmarked)
Second: CCCCNC(=O)C1c2ccccc2C(=O)N1CC(C)c1ccc(Cl)cc1 (centres unmarked) [N-butyl-2-[2-(4-chlorophenyl)propyl]-3-oxoisoindoline-1-carboxamide]
The IC50 of the first is 1.8-fold higher: 1300 nM for the first, 730 nM for the second.

Going from `C[C@H](c1ccccc1)N1C(=O)c2cc(Br)ccc2C1C(=O)NCc1ccccc1` (stereo partly drawn) [N-benzyl-5-bromo-3-oxo-2-[(1R)-1-phenylethyl]isoindoline-1-carboxamide] to `CC(c1ccccc1)N1C(=O)c2ccccc2C1C(=O)NCc1ccccc1` (centres unmarked) [N-benzyl-3-oxo-2-(1-phenylethyl)isoindoline-1-carboxamide], the IC50 rises from 2100 nM to 6000 nM (2.9-fold). The first is the more potent here.

First: CC(CN1C(=O)c2ccccc2C1C(=O)NCc1ccc(F)cc1)c1ccc(Cl)cc1 (centres unmarked) [2-[2-(4-chlorophenyl)propyl]-N-(4-fluorobenzyl)-3-oxoisoindoline-1-carboxamide]
Second: CC(CN1C(=O)c2ccccc2C1C(=O)NCc1ccccc1Cl)c1ccc(Cl)cc1 (centres unmarked) [N-(2-chlorobenzyl)-2-[2-(4-chlorophenyl)propyl]-3-oxoisoindoline-1-carboxamide]
The IC50 of the first is 2.5-fold higher: 1900 nM for the first, 750 nM for the second. The second is the more potent here.

Going from `CCCNC(=O)C1c2cc(Cl)ccc2C(=O)N1Cc1ccccc1-c1ccccc1` (centres unmarked) [2-(biphenyl-2-ylmethyl)-6-chloro-3-oxo-N-propylisoindoline-1-carboxamide] to `CC(C)(C)NC(=O)C1c2cc(Br)ccc2C(=O)N1Cc1ccccc1-c1ccccc1` (centres unmarked) [2-(biphenyl-2-ylmethyl)-6-bromo-N-(tert-butyl)-3-oxoisoindoline-1-carboxamide], the IC50 rises from 1100 nM to 2400 nM (2.2-fold). The first is the more potent here.

`CC(CN1C(=O)c2ccc(Cl)cc2C1C(=O)NCc1ccc(C(F)(F)F)nc1)c1ccc(Cl)cc1` (centres unmarked) [6-chloro-2-[2-(4-chlorophenyl)propyl]-3-oxo-N-{[6-(trifluoromethyl)pyridin-3-yl]methyl}isoindoline-1-carboxamide] and `CC(CN1C(=O)c2ccccc2C1C(=O)NCc1ccc2c(c1)OCO2)c1ccc(Cl)cc1` (centres unmarked) [N-(1,3-benzodioxol-5-ylmethyl)-2-[2-(4-chlorophenyl)propyl]-3-oxoisoindoline-1-carboxamide] are within 1.5-fold of each other in IC50: 420 nM for the first, 620 nM for the second.

`Cc1c(O)ccc2c1C(=O)N(Cc1ccccc1-c1ccc(F)c(F)c1)C2C(=O)NC(C)(C)C` (centres unmarked) [N-(tert-butyl)-2-[(3′,4′-difluorobiphenyl-2-yl)methyl]-5-hydroxy-4-methyl-3-oxoisoindoline-1-carboxamide] and `Cc1c(O)ccc2c1C(=O)N(Cc1ccccc1Oc1ccc(C(F)(F)F)cc1)C2C(=O)NC(C)(C)C` (centres unmarked) [N-(tert-butyl)-5-hydroxy-4-methyl-3-oxo-2-{2-[4-(trifluoromethyl)phenoxy]benzyl}isoindoline-1-carboxamide] are the same in IC50: 2000 nM for the first, 2000 nM for the second.

First: Cc1c(OCF)ccc2c1C(=O)N(CC(C)c1ccc(Cl)cc1)C2C(=O)NC(C)(C)C (centres unmarked) [N-(tert-butyl)-2-[2-(4-chlorophenyl)propyl]-5-(fluoromethoxy)-4-methyl-3-oxoisoindoline-1-carboxamide]
Second: CCCNC(=O)C1c2ccccc2C(=O)N1CC(C)c1ccc(Cl)cc1 (centres unmarked) [2-[2-(4-chlorophenyl)propyl]-3-oxo-N-propylisoindoline-1-carboxamide]
The IC50 of the first is 2.3-fold higher: 3000 nM for the first, 1300 nM for the second. The second is the more potent here.

`CN(C)c1ccc(CNC(=O)C2c3ccccc3C(=O)N2Cc2cc(C(F)(F)F)cc(C(F)(F)F)c2)cc1` (centres unmarked) [2-[3,5-bis(trifluoromethyl)benzyl]-N-[4-(dimethylamino)benzyl]-3-oxoisoindoline-1-carboxamide] and `O=C(NCc1ccccc1)C1c2ccccc2C(=O)N1CCC1=CCCCC1` (centres unmarked) [N-benzyl-2-(2-cyclohex-1-en-1-ylethyl)-3-oxoisoindoline-1-carboxamide] are the same in IC50: 1800 nM for the first, 1800 nM for the second.

With `O=C(NCc1ccc(F)cc1)C1c2ccccc2C(=O)N1C(c1ccncc1)c1ccc(Cl)cc1` (centres unmarked) [2-[(4-chlorophenyl)(pyridin-4-yl)methyl]-N-(4-fluorobenzyl)-3-oxoisoindoline-1-carboxamide] the IC50 was 2100 nM.

Source: patent US20080015237A1 (ASTRAZENECA AB, priority 2006, published 2008)
